B1: subtilisin A: subtilisin A from Bacillus licheniformis (Sigma) (protein, listed as Bacillus licheniformis)
chain: MMRKKSFWLGMLTAFMLVFTMAFSDSASAAQPAKNVEKDYIVGFKSGVKTASVKKDIIKESGGKVDKQFRIINAAKAKLDKEALKEVKNDPDVAYVEEDHVAHALAQTVPYGIPLIKADKVQAQGFKGANVKVAVLDTGIQASHPDLNVVGGASFVAGEAYNTDGNGHGTHVAGTVAALDNTTGVLGVAPSVSLYAVKVLNSSGSGTYSGIVSGIEWATTNGMDVINMSLGGPSGSTAMKQAVDNAYARGVVVVAAAGNSGSSGNTNTIGYPAKYDSVIAVGAVDSNSNRASFSSVGAELEVMAPGAGVYSTYPTSTYATLNGTSMASPHVAGAAALILSKHPNLSASQVRNRLSSTATYLGSSFYYGKGLINVEAAAQ

Key:
Format in all cases: biochemical
Z-QQP-pNA = experiment: Hydrolysis of paranitroanilide-derivatized substrate Z-QQP-pNA; details: substrate 200 μM, pH 8.0 (data not shown)
Protocol: (§1) Hydrolysis of paranitroanilide-derivatized substrates—Paranitroanilide (pNA)-derivatized tripeptide substrates were chemically synthesized at >90% purity (21st Century Biochemicals, Marlborough, Mass.). The substrates obtained were Z-YPQ-pNA, Z-QQP-pNA, Z-LPY-pNA, Z-PFP-pNA, Z-PPF-pNA, where Z=benzyloxycarbonyl, Y=tyrosine, P=proline, Q=glutamine, L=leucine, and F=phenylalanine Suc-AAPF-pNA (SEQ ID NO: 4) was obtained from Sigma, where Suc=N-succinyl and A=alanine. The peptides were dissolved in 75-100% DMSO at 10 mM, and were used at a final concentration of 200 μM in 50 mM TrisHCl pH 8.0. Purified Rothia enzyme or subtilisin A from Bacillus licheniformis (Sigma) were tested at final concentrations of 1 μg/ml. Some experiments were conducted in the presence of inhibitors 4-(2-Aminoethyl) benzenesulfonyl fluoride (AEBSF), Aprotinin, E-64, EDTA, phenylmethanesulfonyl fluoride (PMSF) and Eglin C, which were tested at final concentrations of 10 mM, 0.08 mM, 0.1 mM, 1.5 mM, 1 mM, and 0.06-1.2 μM, respectively. Enzymes were preincubated with the inhibitors for 20 min before adding Suc-AAPF-pNA (SEQ ID NO: 4). Substrate hydrolysis was monitored for 10 h at 405 nm using a Genios microtiter plate reader (Tecan, Männedorf, Switzerland) in the kinetic mode at 37° C.

FRET substrate PQPQPQ = experiment: FRET substrate hydrolysis, PQPQPQ; details: substrate 100 μM, Rmep 1 μg/ml, subtilisin A 0.5 μg/ml, pH 8.0
Protocol: FIG. 4D and FIG. 4E are representative graphs of the hydrolysis of gliadin-derived FRET substrates. FRET substrates containing QPQLPY (SEQ ID NO: 22), PQPQPQ (SEQ ID NO: 23) and QGSFQP (SEQ ID NO: 24), each at 100 μM, were incubated with Rmep […] and subtilisin A (FIG. 4E), at 1 μg/ml and 0.5 μg/ml, respectively. Controls were boiled Rmep and subtilisin A incubated with PQPQLPY (+) (SEQ ID NO: 25), PQPQPQ (⋄) (SEQ ID NO: 23) and QGSFQP (*) (SEQ ID NO: 24) (no activity, baseline).
FRET substrate hydrolysis—Three fluorescence resonance energy transfer (FRET) substrates comprising the hexapeptides QPQLPY (SEQ ID NO: 22), PQPQPQ (SEQ ID NO: 23) and QGSFQP (SEQ ID NO: 24) were synthesized with at the N-terminus the HILYTE FLUOR™ 488 label, and at the C-terminus with K(QXL520) (Anaspec, Fremont, Calif.). Rmep (1 μg/ml) and subtilisin A (0.5 μg/ml) were incubated with the substrates (100 μM) in 50 mM TrisHCl pH 8.0. Samples were incubated at 37° C. and fluorescence increase, indicating hydrolysis, was measured every 5 min for 30 min, and every 10 min for the next 30 min, at λex 485 nm and λem 520 nm, using a Genios microtiter plate reader in the kinetic mode.

[1] = tested on: R5 epitopes (QQPFP and related pentapeptides) in mixed gliadins; experiment: R5 ELISA, gluten epitope elimination in gliadin digests; details: gliadins 250 μg/ml, enzyme 57 μg/ml
Protocol: FIG. 8E and FIG. 8F show the assessment of the survival of epitopes in the gliadin-NattoK degradation mixture employing the R5 ELISA (FIG. 8E) or G12 ELISA (FIG. 8F) assays. Epitope abolishment in Mixed gliadins (250 μg/ml) were incubated with NattoK (57 μg/ml) for 0, 15, 30 and 120 min and then assayed by the R5 ELISA or G12 ELISA.
R5 and G12 ELISA assays—Gluten epitope elimination in the gliadin-Rmep and gliadin-subtilisin A digests was assessed using two sandwich ELISA assays employing the R5 monoclonal antibody (RIDASCREEN Gliadin, R-Biopharm, Darmstadt, Germany) or the G12 monoclonal antibody (AgraQuant® ELISA Gluten G12, Romer labs, Union, Mo.). To prevent high background values, the R5 plate wells were blocked with 1% skim milk in PBS prior to incubation with the samples. The assays were performed according to the manufacturers' instructions and as described (21, 24).
To further investigate this, the time courses of degradation of mixed gliadins and the highly immunogenic 33-mer α-gliadin peptide were determined. Furthermore, epitope elimination was monitored by two ELISA assays employing the R5 antibody recognizing QQPFP (SEQ ID NO: 40) and related pentapeptides (27, 28) and the G12 antibody recognizing QPQLPY (SEQ ID NO: 22) contained in the 33-mer peptide (29, 30). Data obtained with Rmep are shown in FIG. 5, and with subtilisin A in FIG. 6.

Z-PPF-pNA = experiment: Hydrolysis of paranitroanilide-derivatized substrate Z-PPF-pNA; details: fifty-fold increased enzyme concentrations (data not shown)
Protocol: as §1

Z-YPQ-pNA = experiment: Hydrolysis of paranitroanilide-derivatized substrate Z-YPQ-pNA; details: substrate 200 μM, enzyme 1 μg/ml, pH 8.0; second most rapid after Suc-AAPF-pNA
Protocol: FIG. 4A and FIG. 4B are representative graphs of the hydrolysis of the substrates: Suc-AAPF-pNA (SEQ ID NO: 4), Z-YPQ-pNA, and Z-LPY-pNA, each at 200 μM, by Rmep and subtilisin A, respectively, each at 1 μg/ml.
as §1, with “Enzymes were preincubated with the inhibitors for 20 min before adding Suc-AAPF-pNA (SEQ ID NO: 4).” left out

[2] = tested on: α-gliadin derived 33-mer peptide; experiment: Degradation of the 33-mer peptide (RP-HPLC); details: 33-mer 250 μg/ml, enzyme 57 μg/ml
Protocol: FIG. 8D is a representative chromatogram of the RP-HPLC analysis of the degradation of the gliadin-derived 33-mer (250 μg/ml) incubated for 0, 15, 30 and 120 min with NattoK 57 μg/ml).
Degradation of mixed gliadins and the 33-mer peptide—Mixed gliadins were obtained from Sigma. A synthetic highly immunogenic α-gliadin derived 33-mer peptide (26) was synthesized at a purity of >90% (21st Century Biochemicals). Mixed gliadins or the 33-mer peptide (each at final concentration 250 μg/ml) were incubated with Rmep or subtilisin A (each at 57 μg/ml) in 50 mM TrisHCl, pH 8.0. After t=0, 15 min, 30 min, and 2 h, 100 μl sample aliquots were removed and boiled. Gliadin degradation was assessed by 4-12% SDS-PAGE followed by Coomassie staining, and 33-mer degradation was determined by RP-HPLC.
Reversed-phase high performance liquid chromatography (RP-HPLC)—Separation of the 33-mer peptide and its fragments was achieved by RP-HPLC, using buffer A (0.1% trifluoroacetic acid) and buffer B (0.1% trifluoroacetic acid in 80% acetonitrile) at a gradient of 0-55% buffer B over 75 min time interval. The equipment used was an HPLC Model 715 (Gilson, Middleton, Wis.) and a C-18 column (TSK-GEL […], ODS-120T, TOSOHaas, Montgomeryville, Pa.) (22, 25).

| Molecule | hydrolysis of Z-QQP-pNA (Z-QQP-pNA) | hydrolysis of FRET substrate PQPQPQ (FRET substrate PQPQPQ) | R5 epitopes eliminated after 15 min ([1]; 15 min) | R5 epitope elimination (reduction in antibody binding) at t=0 [1] | hydrolysis of Z-PPF-pNA (Z-PPF-pNA) | hydrolysis of Z-YPQ-pNA (Z-YPQ-pNA) | incubation time within which 33-mer peptide degradation was completed ([2]; pH 8.0) | R5 epitope elimination within 15 min of incubation ([1]; 15 min) | 33-mer peptide degradation after 2 h of incubation ([2]; 2 h) |
| --- | --- | --- | --- | --- | --- | --- | --- | --- | --- |
| Rmep: DEAE pooled fraction F2 of R. mucilaginosa ATCC 25296 extract with highest gluten-degrading enzyme activity; contains subtilisins C6R5V9_9MICC and C6R5W1_9MICC | not hydrolyzed | rapidly hydrolyzed | virtually all | 46% | not | cleaved | ≤ 30 min | – | – |
| B1 | not hydrolyzed | highest activity | – | 90% | hydrolyzed | cleaved | – | 100% | 74% |
